In assay [1] the target is T1, Muscarinic acetylcholine receptor M1 (Homo sapiens) (UniProt P11229).
T1 sequence (whole entry): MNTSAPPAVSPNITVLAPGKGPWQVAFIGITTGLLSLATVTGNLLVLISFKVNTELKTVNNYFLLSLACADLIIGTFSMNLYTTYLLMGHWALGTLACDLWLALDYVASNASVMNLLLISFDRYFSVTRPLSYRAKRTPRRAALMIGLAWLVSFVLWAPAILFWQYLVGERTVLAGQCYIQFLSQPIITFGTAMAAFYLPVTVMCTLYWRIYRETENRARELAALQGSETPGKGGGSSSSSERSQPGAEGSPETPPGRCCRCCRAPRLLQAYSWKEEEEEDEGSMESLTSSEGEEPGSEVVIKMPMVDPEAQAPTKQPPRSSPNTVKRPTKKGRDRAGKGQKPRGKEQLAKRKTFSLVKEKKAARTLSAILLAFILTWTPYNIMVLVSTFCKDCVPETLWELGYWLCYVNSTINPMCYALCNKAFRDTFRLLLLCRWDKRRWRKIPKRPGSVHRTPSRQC
Nature of the assay: Ability to displace [3H]N-methylscopolamine binding to M1 human recombinant muscarinic receptor in CHO cells at concentration 1 uM. In kind it is cell-based.

In assay [2] the target is T2, Acetylcholine receptor subunit delta (Torpedo californica) (UniProt P02718).
T2 sequence (whole entry): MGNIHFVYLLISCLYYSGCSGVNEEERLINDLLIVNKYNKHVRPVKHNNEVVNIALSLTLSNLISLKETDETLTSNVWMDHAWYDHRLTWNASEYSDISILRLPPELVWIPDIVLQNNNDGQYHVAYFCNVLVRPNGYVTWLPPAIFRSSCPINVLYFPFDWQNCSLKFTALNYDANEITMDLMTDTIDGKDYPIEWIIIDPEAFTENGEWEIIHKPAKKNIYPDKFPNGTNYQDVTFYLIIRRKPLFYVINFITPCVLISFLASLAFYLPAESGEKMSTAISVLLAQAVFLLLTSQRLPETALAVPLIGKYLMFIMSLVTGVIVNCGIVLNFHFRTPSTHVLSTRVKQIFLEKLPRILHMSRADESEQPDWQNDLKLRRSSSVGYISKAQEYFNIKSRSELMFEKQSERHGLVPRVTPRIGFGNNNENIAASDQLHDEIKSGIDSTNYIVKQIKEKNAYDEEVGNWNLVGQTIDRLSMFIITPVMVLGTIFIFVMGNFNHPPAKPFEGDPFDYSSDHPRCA
The assay is described as follows: (§1) Ability to displace [3H]cytisine binding to Nicotinic acetylcholine receptor in synaptic membrane fractions from rat cerebral cortices at a concentration of 10 uM. In kind it is cell membranes. The note with it: target entry is the homologue from another species.

Assay [3] deals with Muscarinic acetylcholine receptor M3 (Homo sapiens) (UniProt P20309). The assay is described as follows: Ability to displace [3H]N-methylscopolamine binding to M3 human recombinant muscarinic receptor in CHO cells at concentration 1 uM. The assay is classed as cell-based.
For assay [4], the target named is T1, Muscarinic acetylcholine receptor M1 (Homo sapiens). The assay is described as follows: Ability to displace [3H]N-methylscopolamine binding to M1 human recombinant muscarinic receptor in CHO cells at concentration 10 uM. In kind it is cell-based.
In assay [5] the target is Muscarinic acetylcholine receptor M3 (Homo sapiens) (UniProt P20309). Nature of the assay: Ability to displace [3H]N-methylscopolamine binding to M3 human recombinant muscarinic receptor in CHO cells at concentration 10 uM. In kind it is cell-based.
Assay [6] addresses T3, Muscarinic acetylcholine receptor M2 (Homo sapiens) (UniProt P08172).
T3 sequence (whole entry): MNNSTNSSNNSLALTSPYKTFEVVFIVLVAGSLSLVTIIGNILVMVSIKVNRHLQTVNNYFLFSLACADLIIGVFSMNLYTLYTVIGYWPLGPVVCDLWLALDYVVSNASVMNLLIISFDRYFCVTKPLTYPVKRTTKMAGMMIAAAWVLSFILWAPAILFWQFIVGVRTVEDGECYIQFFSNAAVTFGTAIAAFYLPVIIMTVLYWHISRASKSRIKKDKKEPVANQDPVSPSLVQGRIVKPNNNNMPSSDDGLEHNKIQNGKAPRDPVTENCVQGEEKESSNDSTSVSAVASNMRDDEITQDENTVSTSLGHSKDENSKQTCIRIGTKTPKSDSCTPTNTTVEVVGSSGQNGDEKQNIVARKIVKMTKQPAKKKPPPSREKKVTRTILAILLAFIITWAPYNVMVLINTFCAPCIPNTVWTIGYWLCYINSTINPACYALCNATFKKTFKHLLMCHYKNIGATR
The assay is described as follows: Ability to displace [3H]N-methylscopolamine binding to M2 human recombinant muscarinic receptor in CHO cells at concentration 1 uM. In kind it is cell-based.

In assay [7] the target is T3, Muscarinic acetylcholine receptor M2 (Homo sapiens). Nature of the assay: Ability to displace [3H]N-methylscopolamine binding to M2 human recombinant muscarinic receptor in CHO cells at concentration 10 uM. The assay is classed as cell-based.
For assay [8], the target named is Neuronal acetylcholine receptor. The assay is described as follows: The compound was tested for its binding affinity against Nicotinic acetylcholine receptor in synaptic membrane fractions from rat cerebral cortices. The assay is classed as cell membranes.
Assay [9] has as its target T4, Neuronal acetylcholine receptor (Rattus norvegicus) (UniProt P04757+P09483+P12389+P12390+P12392+P43144+Q9JLB5+P12391+P43143+P20420+Q05941). Nature of the assay: Ability to displace [3H]cytisine binding to nicotinic receptor in synaptic membrane fractions from rat cerebral cortices at a concentration of 10 uM. In kind it is cell membranes.
Assay [10] deals with T5, Neuronal acetylcholine receptor subunit alpha-7 (Rattus norvegicus, UniProt Q05941). Nature of the assay: The compound was tested for its binding affinity against nicotinic receptor in synaptic membrane fractions from rat cerebral cortices. In kind it is cell membranes.
Assay [11] deals with T4, Neuronal acetylcholine receptor (Rattus norvegicus). The description is as §1. The assay is classed as cell membranes.
Assay [12] has as its target T6, Muscarinic acetylcholine receptor M1 (Homo sapiens, UniProt P11229).
T6 sequence (P11229 whole entry): T1 sequence (whole entry)
Nature of the assay: Compound was tested for its binding affinity against M1 human recombinant muscarinic receptor in CHO cells. The assay is classed as cell-based.

The target in assay [13] is T5, Neuronal acetylcholine receptor subunit alpha-7. The assay is described as follows: Compound was tested for its binding affinity against nicotinic receptor in synaptic membrane fractions from rat cerebral cortices. The assay is classed as cell membranes.
The target of assay [14] is T6, Muscarinic acetylcholine receptor M1. Nature of the assay: The compound was tested for its binding affinity against M1 human recombinant muscarinic receptor in CHO cells. In kind it is cell-based.

T5 sequence (Q05941 whole entry): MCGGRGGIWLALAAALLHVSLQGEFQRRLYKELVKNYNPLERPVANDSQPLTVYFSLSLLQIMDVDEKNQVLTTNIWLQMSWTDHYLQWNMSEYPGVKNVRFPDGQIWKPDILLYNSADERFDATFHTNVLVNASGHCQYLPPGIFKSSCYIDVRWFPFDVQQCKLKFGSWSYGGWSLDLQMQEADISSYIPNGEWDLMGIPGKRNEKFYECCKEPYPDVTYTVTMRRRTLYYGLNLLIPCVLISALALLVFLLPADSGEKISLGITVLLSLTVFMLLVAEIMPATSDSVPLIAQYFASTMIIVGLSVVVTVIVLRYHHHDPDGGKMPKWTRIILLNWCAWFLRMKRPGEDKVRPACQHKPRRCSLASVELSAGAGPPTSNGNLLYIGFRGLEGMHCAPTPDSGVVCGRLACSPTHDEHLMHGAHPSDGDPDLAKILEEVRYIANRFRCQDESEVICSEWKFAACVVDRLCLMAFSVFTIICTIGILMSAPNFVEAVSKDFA
Muscarinic acetylcholine receptor M3 (Homo sapiens), sequence (P20309 whole entry, looked up): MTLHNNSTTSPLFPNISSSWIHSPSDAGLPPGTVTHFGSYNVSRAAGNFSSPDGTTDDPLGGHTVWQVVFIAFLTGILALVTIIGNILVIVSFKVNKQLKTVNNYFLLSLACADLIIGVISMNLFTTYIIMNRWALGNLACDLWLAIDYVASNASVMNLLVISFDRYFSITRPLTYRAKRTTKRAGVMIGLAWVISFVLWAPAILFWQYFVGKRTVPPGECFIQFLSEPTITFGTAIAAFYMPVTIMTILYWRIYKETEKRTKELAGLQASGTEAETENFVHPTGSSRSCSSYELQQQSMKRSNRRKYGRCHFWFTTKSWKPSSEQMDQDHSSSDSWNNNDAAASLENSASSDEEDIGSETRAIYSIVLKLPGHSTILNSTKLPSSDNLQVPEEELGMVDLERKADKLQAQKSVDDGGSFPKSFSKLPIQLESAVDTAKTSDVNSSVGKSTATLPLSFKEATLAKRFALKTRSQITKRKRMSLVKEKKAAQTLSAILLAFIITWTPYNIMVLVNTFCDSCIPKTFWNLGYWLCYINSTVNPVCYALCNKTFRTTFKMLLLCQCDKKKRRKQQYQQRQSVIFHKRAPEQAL

Consider `Nc1ccc(-c2cc(/C=C3/CN4CCC3CC4)on2)cc1`, for which the inhibition in assay [1] was determined as 33%; in assay [2], 94%; in [3] it was 1%; in assay [4], 86%; in assay [5], 19%; in assay [6] it was 5%. The inhibition in assay [7] was found to be 30%. In addition, the IC50 in [8] was 709 nM.
For the molecule `Oc1ccc(-c2cc(/C=C3/CN4CCC3CC4)on2)cc1`, the inhibition stood at 6% in assay [1]; 3% in [3]; 93% in [9]; 65% in assay [4]; 14% in assay [5]; 3% in assay [6]. Besides, in [7], the inhibition was 17%. The same molecule gave an IC50 in assay [10] of 695 nM.
For `Nc1ccc(-c2cc(/C=C3\CN4CCC3CC4)on2)cc1`, the inhibition was determined as 0% in [1]; 77% in [11]; 0% in assay [3]; 4% in assay [4]; 0% in assay [5]; 0% in [6]. Besides, the inhibition in assay [7] turned out to be 5%.
For `Cc1cc(/C=C2\CN3CCC2CC3)on1`, the IC50 in [12] is around 10 µM; in assay [13] it was 12 nM.
`COc1ccc(-c2cc(/C=C3\CN4CCC3C4)on2)cc1` (stereo not given): the inhibition in [1] came out at 0%; in assay [11], 55%; in assay [3], 0%; in assay [4], 34%; in [5] it was 2%; in assay [6], 7%. In addition, in assay [7], the inhibition amounted to 24%.
With `COc1ccc(COc2ccc(-c3cc(/C=C4\CN5CCC4C5)on3)cc2)cc1` (stereo not given), the inhibition was found to be 69% in assay [1], 0% in assay [11] and 84% in [4].
Consider `COc1ccc(COc2ccc(-c3cc(/C=C4\CN5CCC4CC5)on3)cc2OCc2ccc(OC)cc2)cc1`, for which the inhibition came out at 85% in assay [1]; 76% in assay [3]; 0% in assay [9]; 100% in assay [4]; 98% in assay [5]; 49% in assay [6]. Besides, the inhibition in [7] stood at 92%. In addition, the IC50 in assay [14] came to 260 nM.
Consider `N#Cc1ccc(-c2cc(/C=C3\CN4CCC3CC4)on2)cc1`, for which the inhibition in assay [1] is 2%; in assay [3], 9%; in assay [9] it was 83%; in assay [4], 22%; in [5], 31%; in [6], 6%. Moreover, the inhibition in [7] is 32%. This molecule also had an IC50 in [10] above 10 nM.
With `COc1ccc(COc2ccc(-c3cc(/C=C4/CN5CCC4C5)on3)cc2OCc2ccc(OC)cc2)cc1` (stereo not given), the inhibition worked out at 39% in assay [1]; 9% in assay [3]; 0% in [9]; 91% in [4]; 82% in assay [5]; 24% in assay [6]. For the same molecule, the inhibition in assay [7] stood at 78%. Also, the IC50 in assay [14] amounted to 1230 nM.
For `Oc1ccc(-c2cc(/C=C3\CN4CCC3CC4)on2)cc1O`, the inhibition in assay [1] was 0%; in assay [2], 88%; in assay [3] it was 0%; in assay [4] it was 8%; in assay [5], 0%; in assay [6], 0%. Besides, the inhibition in assay [7] came to 7%.
On to `N#Cc1ccc(-c2cc(/C=C3/CN4CCC3CC4)on2)cc1`, for which the inhibition in [1] amounted to 11%; in [3], 1%; in [9] it was 92%; in assay [4], 61%; in [5] it was 26%; in assay [6] it was 0%. Also, in [7], the inhibition is 23%. Also, the concentration for half-maximal inhibition (IC50) in assay [10] came to 803 nM.
As to `Oc1ccc(-c2cc(/C=C3/CN4CCC3CC4)on2)cc1O`, the inhibition came to 13% in assay [1]; 95% in [2]; 5% in [3]; 59% in assay [4]; 39% in [5]; 12% in assay [6]. Besides, the inhibition in assay [7] was 43%. This molecule also returned an IC50 in assay [8] of 486 nM.
With `COc1ccc(-c2cc(/C=C3/CN4CCC3C4)on2)cc1` (stereo not given), the inhibition in assay [1] worked out at 8%; in [11] it was 58%; in [3] it was 0%; in assay [4], 45%; in assay [5] it was 0%; in assay [6] it was 15%. In addition, in [7], the inhibition was found to be 19%.
Consider `COc1ccc(COc2ccc(-c3cc(/C=C4\CN5CCC4C5)on3)cc2OCc2ccc(OC)cc2)cc1` (stereo not given), for which the inhibition came to 87% in assay [1]; 88% in assay [3]; 0% in assay [9]; 100% in assay [4]; 98% in assay [5]; 77% in assay [6]. In addition, the inhibition in [7] is 95%. Also, the IC50 in assay [14] came out at 114 nM.
Consider `COc1ccc(COc2ccc(-c3cc(/C=C4\CN5CCC4CC5)on3)cc2)cc1`, for which the inhibition is 77% in assay [1]; 31% in assay [3]; 0% in assay [9]; 64% in [4]; 37% in assay [5]; 55% in [6]. Further, in assay [7], the inhibition was determined as 46%. Also, the IC50 in [14] amounted to 809 nM.

The values above are taken from ChEMBL document CHEMBL1131993, “Binding affinities of 3-(3-phenylisoxazol-5-yl)methylidene-1-azabicycles to acetylcholine receptors” (Bioorg Med Chem Lett, 1999).
